Measurements published in PubChem BioAssay (NCI).
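Step 1: Grow cells in 96-well plates. Step 2: Expose to compound for 48 hours at 5 concentrations. Step 3: Interpolate endpoints linearly; if unreached, use highest concentration. GI50 is the concentration that inhibits growth by half. At the TGI there is no net growth.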

Legend:
Assay in all cases: NCI tumour cell line growth inhibition, 48 h
[1] = tested on: A498 renal
[2] = tested on: HT29 colon
[3] = tested on: K-562 leukemia
[4] = tested on: MOLT-4 leukemia
[5] = tested on: NCI-H522 lung
[6] = tested on: OVCAR-5 ovarian
[7] = tested on: RXF 393 renal
[8] = tested on: SF-295 CNS
[9] = tested on: SNB-19 CNS
[10] = tested on: UACC-62 melanoma

| SMILES | TGI [1] [µM] | TGI [2] [µM] | TGI [3] [µM] | TGI [4] [µM] | TGI [5] [µM] | TGI [6] [µM] | TGI [7] [µM] | TGI [8] [µM] | TGI [9] [µM] | TGI [10] [µM] | GI50 [1] [µM] | GI50 [2] [µM] | GI50 [3] [µM] | GI50 [4] [µM] | GI50 [5] [µM] | GI50 [6] [µM] | GI50 [7] [µM] | GI50 [8] [µM] | GI50 [9] [µM] | GI50 [10] [µM] |
| --- | --- | --- | --- | --- | --- | --- | --- | --- | --- | --- | --- | --- | --- | --- | --- | --- | --- | --- | --- | --- |
| CCOC(=O)C(CC/C=C\c1ccccc1)N1CCC[C@H]1C(=O)OC (some centres undefined) | > 100 | > 100 | > 100 | > 100 | > 100 | > 100 | > 100 | > 100 | > 100 | > 100 | – | – | – | – | – | – | – | – | – | – |
| O=C1OC(=O)C2CCCC3CCCC1C32 (centres undefined) | > 100 | > 100 | > 100 | > 100 | > 100 | > 100 | > 100 | > 100 | > 100 | > 100 | – | – | – | – | – | – | – | – | – | – |
| CCN(CC)C(=S)SCN1C(=O)c2ccccc2S1(=O)=O | > 100 | > 74.9 | > 100 | > 100 | > 45 | > 100 | > 80.1 | > 100 | > 100 | – | 42.9 | 25.1 | 24 | 23.9 | 0.391 | > 68.4 | > 51.3 | > 67.2 | 78 | 3.02 |
| OCCNc1nc(Nc2ccc(Cl)c(Cl)c2)nc2ccccc12 | 13.9 | 12.1 | 10.8 | 13.2 | 24.5 | 6.22 | 18.4 | 20.2 | 18.6 | 23.5 | 1.5 | 3.39 | 3.09 | 1.87 | 10 | 2.21 | 4.45 | 6.1 | 5.02 | 10.9 |
| O=[N+]([O-])c1cc(C(F)(F)F)ccc1Sc1ccc(C(F)(F)F)cc1[N+](=O)[O-] | 30.6 | 9.79 | > 100 | > 100 | 82.4 | > 100 | > 100 | > 100 | > 100 | > 100 | 7.22 | 3.28 | 3.49 | 3.92 | 7.14 | 43 | 11.4 | 31.4 | 70.2 | 5.27 |
